Results taken from patent publication US20190150447A1, “CONDENSED HETEROCYCLIC COMPOUND” (Sumitomo Chemical Company, Limited, priority 2015, published 2019).

How the values were obtained:
Type in all cases: in vivo
[1] = system: brown planthopper (Nilaparvata lugens); test: Test Example 2: foliar spray on rice seedling against brown planthopper; settings: 144 h, spray 10 mL/seedling on rice, 3rd instar larvae, after 6 days, read-out: mortality of insects
Protocol: (§1) The test compound is made to a formulation according to the method described in the Formulation Example 5, and thereto is added water containing 0.03 v/v % of a spreader to prepare a diluted solution containing a prescribed concentration of the test compound.
Rice (Oryza sativa) seedling (on the developmental stage of the second true leaf) is planted in a plastic cup, and the diluted solutions are sprayed into the seedling in a ratio of 10 mL/seedling. Thereafter, 20 heads of 3rd instar larvae of brown planthopper (Nilaparvata lugens) are released onto the rice leaves. After 6 days, the morality is calculated by the following equation.
Morality (%)={1−the number of the surviving insects/20}×100

[2] = system: German cockroach (Blattella germanica); test: Test Example 5: filter paper/sucrose bait test against German cockroach; settings: 144 h, 0.7 mL on filter paper, male, after 6 days, read-out: mortality of insects
Protocol: (§2) The test compound is made to a formulation according to the method described in the Formulation Example 5, and thereto is added water to prepare a diluted solution containing a prescribed concentration of the test compound.
The bottom of the plastic cup having 5.5 cm diameter is matted with the same size of a filter paper, and 0.7 mL of the diluted solution is added dropwise to the filter paper, and 30 mg sucrose as bait is placed in the cup uniformly. Two (2) heads of male German cockroach (Blattella germanica) are released into the plastic cup, and the cup is covered with the lid. After 6 days, the life and death of German cockroach is examined and the number of died insects is counted, and the mortality of insects is calculated by the following equation.
(§3) Mortality of insects (%)=(Number of dead insects/Number of test insects)×100

[3] = system: housefly (Musca domestica); test: Test Example 4: filter paper/sucrose bait test against housefly; settings: 0.7 mL on filter paper, female adult, after 24 hours, read-out: mortality of insects
Protocol: as §2
The bottom of the plastic cup having 5.5 cm diameter is matted with the same size of a filter paper, and 0.7 mL of the diluted solution is added dropwise to the filter paper, and 30 mg sucrose as bait is placed in the cup uniformly. Ten (10) heads of female adult housefly (Musca domestica) are released into the plastic cup, and the cup is covered with the lid. After 24 hours, the life and death of housefly is examined and the mortality of insects is determined. The mortality of insects is calculated by the following equation.
as §3

[4] = system: cotton aphid (Aphis gossypii); test: Test Example 1: foliar spray on cucumber seedling against cotton aphid; settings: 500 ppm; spray 10 mL/seedling on cucumber; all stages of life; after 5 days
Protocol: The test compounds is made to a formulation according to the method described in the Formulation Example 5, and thereto is added water containing 0.03 v/v % of a spreader to prepare a diluted solution containing a prescribed concentration of the test compound. Cucumber (Cucumis sativus) seedling (on the developmental stage of the second true leaf) is planted in a plastic cup, and approximately 30 heads of cotton aphid (Aphis gossypii) (all stages of life) are released onto the leaves of the cucumber. After 1 day, the diluted solutions were sprayed into the seedling in a ratio of 10 mL/seedling. After 5 days, the number of the surviving insects is examined and the controlling value is calculated by the following equation. Controlling value (%)={1−(Cb×Tai)/(Cai×Tb)}×100 wherein the symbols in the equation represent the following descriptions. Cb: Number of the test insects in untreated group; Cai: Number of the surviving insects at the time of the investigation in untreated group; Tb: Number of the test insects in treated group; Tai: Number of the surviving insects at the time of the investigation in treated group; Here the “untreated group” represents a group where the similar treatment procedure to that of the treated group except not using the test compound is done.

[5] = system: common house mosquito (Culex pipiens pallens); test: Test Example 6: larvae released into diluted solution, common house mosquito; settings: 24 h, last instar larvae in diluted solution, after 1 day, read-out: mortality of insects
Protocol: as §2
Thirty (30) heads of last instar larvae of common house mosquito (Culex pipiens pallens) are released into the diluted solutions and after 1 day, the life and dead of common house mosquito is examined, and the mortality of insects is calculated by the following equation.
Mortality of insects (%)=((Number of dead insects/Numboer of test insects)×100

[6] = system: cabbage moth (Plutella xylostella); test: Test Example 3: foliar spray on cabbage seedling against cabbage moth; settings: 120 h, spray 20 mL/seedling on cabbage, second instar larvae, after 5 days, read-out: mortality of insects
Protocol: as §1
The diluted solutions are sprayed into the cabbage (Brassicae oleracea) seedling (on the developmental stage of the second to third true leaf) that is planted in a container in a ratio of 20 mL/seedling. Thereafter, the stem and leaf thereof is cut out and then is installed into the container that is covered with the filter paper. Five (5) heads of cabbage moth (Plutella xylostella) at the second instar larval stages are released into the cup. After 5 days, the surviving insects are counted, and the mortality of insects is calculated by the following equation.
Morality (%)={1−the number of the surviving insects/5}×100

## CCS(=O)(=O)c1ccc(-n2cncn2)nc1-c1nc2cc(C(F)(F)F)ncc2n1C [Present compound 1]
[1]
  mortality at 500 ppm: 100%
[2]
  mortality at 500 ppm: 100%
[3]
  mortality at 500 ppm: 100%
[4]
  controlling value: 100%
[5]
  mortality at 3.5 ppm: 91%
[6]
  mortality at 500 ppm: 100%
